Experimental data as given in patent US20230322822A1, “ARYL PHOSPHOROUS OXIDE COMPOUNDS AND USE THEREOF” (Chengdu Di'ao Jiuhong Pharmaceutical Factory, priority 2020, published 2023).
Where two headings read alike, the source gives them in different places.

Legend:
NCI-H3122 cells = assay: In vivo pharmacodynamic study, subcutaneously implanted tumor NCI-H3122 (two-sided model); design: species or system BALB/c nude mouse
Description: Passages were treated twice a week. When the cell number reached requirement, the cells were collected, counted and inoculated.
Administration mode and frequency: oral gavage was carried out with an administration volume of 10 mL/kg, and the model group was administered with the same volume of solvent. The administration was once per day and continuously carried out for 16 days.
General conditions such as spirit, activity, food intake and the like of the mice were observed every day, and the weight was measured thrice every week; the short diameter (a) and the long diameter (b) of each mouse tumor were measured thrice a week with a vernier caliper, and the tumor volume was calculated according to the formula (a^2×b)/2. The Relative Tumor Volume (RTV) was calculated from the measured tumor volume, wherein RTV=Vt/V0, wherein V0 was the tumor volume at random grouping (i.e., d0) and Vt was the tumor volume at each measurement (i.e., dn). The relative tumor proliferation rate of the evaluation index of the anti-tumor activity was calculated according to the following formula: relative tumor proliferation rate T/C (%): […]
Note: TRTV: treatment group RTV; CRTV model control group RTV.

[1] = test system: BaF3 EML-4-ALK-L1196M cell line; assay: Cell anti-proliferation test 4 (CCK-8), BaF3 EML-4-ALK-L1196M; format: cell-based; conditions: Ba/F3 EML4-ALK-L1196M, BaF3 EML-4-ALK-L1196M cells, CCK-8, 72 hours
Description: BaF3 EML-4-ALK-L1196M cell line, brand: KYinno, article number: KC-0102
Cell Counting Kit-8 (CCK-8), brand: Targetmol, article number: C0005
10 μL of the compound diluted in gradient was added to the cell plate to give final concentrations of the compounds as 500, 166.67, 55.56, 18.52, 6.17, 2.06, 0.69, 0.23 and 0.08 nM. • d.

[2] = 20 mg/kg oral gavage once per day
[3] = 40 mg/kg oral gavage once per day

`COc1cc(N2CCC(N3CCN(C)CC3)CC2)c(C)cc1Nc1ncc(Br)c(Nc2ccc(C)cc2P(C)(C)=O)n1` [Compound 2] was tested. Which “NCI-H3122 Tumor volume Day 0” value (NCI-H3122 cells; [2]) did it give?
Its value is 116 mm^3.

And the “NCI-H3122 T/C Day 2” value (NCI-H3122 cells; [2])?
Its value is 81.79%.

What about the “NCI-H3122 Tumor volume Day 2” value (NCI-H3122 cells; [2]) of the same molecule?
Its value is 115 mm^3.

What about the “NCI-H3122 T/C Day 4” value (NCI-H3122 cells; [2]) of the same molecule?
Its value is 49.46%.

What about the “NCI-H3122 Tumor volume Day 4” value (NCI-H3122 cells; [2]) of the same molecule?
The value was 92 mm^3.

And the “NCI-H3122 T/C Day 6” value (NCI-H3122 cells; [2])?
The value was 34.18%.

And the “NCI-H3122 Tumor volume Day 6” value (NCI-H3122 cells; [2])?
The value was 84 mm^3.

And the “NCI-H3122 T/C Day 9” value (NCI-H3122 cells; [2])?
The value was 19.71%.

What about the “NCI-H3122 Tumor volume Day 9” value (NCI-H3122 cells; [2]) of the same molecule?
Its value is 74 mm^3.

And the “NCI-H3122 T/C Day 11” value (NCI-H3122 cells; [2])?
The value was 13.58%.

What about the “NCI-H3122 Tumor volume Day 11” value (NCI-H3122 cells; [2]) of the same molecule?
Its value is 63 mm^3.

And the “NCI-H3122 T/C Day 13” value (NCI-H3122 cells; [2])?
The value was 10.25%.

And the “NCI-H3122 Tumor volume Day 13” value (NCI-H3122 cells; [2])?
Its value is 58 mm^3.

What about the “NCI-H3122 T/C Day 16” value (NCI-H3122 cells; [2]) of the same molecule?
The value was 8.16%.

What about the “NCI-H3122 Tumor volume Day 16” value (NCI-H3122 cells; [2]) of the same molecule?
Its value is 61 mm^3.

What about the “NCI-H3122 Tumor volume Day 0” value (NCI-H3122 cells; [3]) of the same molecule?
Its value is 116 mm^3.

And the “NCI-H3122 T/C Day 2” value (NCI-H3122 cells; [3])?
The value was 72.16%.

What about the “NCI-H3122 Tumor volume Day 2” value (NCI-H3122 cells; [3]) of the same molecule?
Its value is 101 mm^3.

What about the “NCI-H3122 T/C Day 4” value (NCI-H3122 cells; [3]) of the same molecule?
The value was 29.76%.

And the “NCI-H3122 Tumor volume Day 4” value (NCI-H3122 cells; [3])?
Its value is 54 mm^3.

And the “NCI-H3122 T/C Day 6” value (NCI-H3122 cells; [3])?
Its value is 19.38%.

And the “NCI-H3122 Tumor volume Day 6” value (NCI-H3122 cells; [3])?
The value was 47 mm^3.

What about the “NCI-H3122 T/C Day 9” value (NCI-H3122 cells; [3]) of the same molecule?
The value was 8.54%.

What about the “NCI-H3122 Tumor volume Day 9” value (NCI-H3122 cells; [3]) of the same molecule?
Its value is 33 mm^3.

What about the “NCI-H3122 T/C Day 11” value (NCI-H3122 cells; [3]) of the same molecule?
Its value is 7.2%.

What about the “NCI-H3122 Tumor volume Day 11” value (NCI-H3122 cells; [3]) of the same molecule?
Its value is 34 mm^3.

And the “NCI-H3122 T/C Day 13” value (NCI-H3122 cells; [3])?
Its value is 5.28%.

And the “NCI-H3122 Tumor volume Day 13” value (NCI-H3122 cells; [3])?
Its value is 32 mm^3.

What about the “NCI-H3122 T/C Day 16” value (NCI-H3122 cells; [3]) of the same molecule?
The value was 3.6%.

And the “NCI-H3122 Tumor volume Day 16” value (NCI-H3122 cells; [3])?
Its value is 28 mm^3.

What about the IC50 ([1]; first test, read-out: First test IC50) of the same molecule?
Its IC50 is 0.0151 µM.

What about the IC50 ([1]; second test, read-out: Second test IC50) of the same molecule?
The IC50 was 0.0104 µM.
